For data set [1], the system named is one or more cytochrome P450 enzymes (CYP1A2, 2A6, 2B6, 2C8, 2C9, 2C19, 2D6, 2E1, 3A4); isoform not specified per value. Briefly: in vitro. The conditions noted are these: human, pH 7.4.
For data set [2], the target named is T1, CYP3A4 (Homo sapiens, UniProt P08684).
The target in a further data set is CYP2C9 (Homo sapiens, UniProt P11712). The conditions noted are these: recombinant enzymes; ref Kent et al., (2002); cited from earlier work.
For data set [3], the target named is T1, CYP3A4. The conditions noted are these: recombinant enzymes; ref Kent et al., (2002); cited from earlier work.
Data set [4] concerns the target T2, CYP2B6 (Homo sapiens, UniProt P20813).
T2 sequence (P20813 1-491): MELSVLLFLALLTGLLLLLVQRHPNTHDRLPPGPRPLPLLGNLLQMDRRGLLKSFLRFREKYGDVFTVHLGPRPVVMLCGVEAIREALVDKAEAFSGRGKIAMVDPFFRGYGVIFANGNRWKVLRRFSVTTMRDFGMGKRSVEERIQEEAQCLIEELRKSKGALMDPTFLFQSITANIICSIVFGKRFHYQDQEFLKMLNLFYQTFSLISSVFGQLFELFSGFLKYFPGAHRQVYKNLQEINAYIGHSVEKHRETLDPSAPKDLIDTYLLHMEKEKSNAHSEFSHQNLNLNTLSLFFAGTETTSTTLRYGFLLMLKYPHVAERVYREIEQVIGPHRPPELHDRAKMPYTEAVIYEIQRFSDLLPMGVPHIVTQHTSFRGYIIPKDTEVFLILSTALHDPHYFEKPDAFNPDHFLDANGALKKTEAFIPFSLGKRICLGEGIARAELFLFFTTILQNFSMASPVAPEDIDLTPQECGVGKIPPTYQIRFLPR
The conditions noted are these: recombinant enzymes; ref Kent et al., (2002); cited from earlier work.

Data set [5] has as its target T2, CYP2B6. Description: Single concentration. Type of data set: in vitro ADME. The conditions noted are these: human liver microsomes. A general note: Liver microsomes are vesicles of endoplasmic reticulum, rich in cytochrome P450 enzymes.
The test system of a further data set is CYP2C. Description: Single concentration. In kind it is in vitro ADME. The conditions noted are these: human liver microsomes.
In the next data set the target is CYP2D6 (Homo sapiens, UniProt P10635). Briefly: Single concentration. Type of data set: in vitro ADME. The settings on record: human liver microsomes.
Chain of CYP2D6 (P10635 whole entry, canonical isoform): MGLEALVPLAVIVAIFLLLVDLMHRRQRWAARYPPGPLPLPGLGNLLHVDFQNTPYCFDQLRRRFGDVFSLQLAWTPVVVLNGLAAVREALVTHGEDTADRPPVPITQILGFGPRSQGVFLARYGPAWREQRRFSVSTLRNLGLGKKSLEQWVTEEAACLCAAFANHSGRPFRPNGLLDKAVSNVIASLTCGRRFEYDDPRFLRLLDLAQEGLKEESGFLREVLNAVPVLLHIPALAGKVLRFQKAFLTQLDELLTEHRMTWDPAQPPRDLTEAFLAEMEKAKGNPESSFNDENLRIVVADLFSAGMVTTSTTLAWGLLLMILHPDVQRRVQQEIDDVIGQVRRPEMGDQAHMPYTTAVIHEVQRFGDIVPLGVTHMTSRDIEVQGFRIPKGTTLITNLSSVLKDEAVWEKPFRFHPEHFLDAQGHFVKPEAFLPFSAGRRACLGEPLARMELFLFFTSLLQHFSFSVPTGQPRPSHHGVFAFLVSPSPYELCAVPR
A further data set has as its system cytochrome P450 enzymes. Briefly: Single concentration. The settings on record: 10 µM, 9 isoforms.

T1 sequence (P08684 whole entry): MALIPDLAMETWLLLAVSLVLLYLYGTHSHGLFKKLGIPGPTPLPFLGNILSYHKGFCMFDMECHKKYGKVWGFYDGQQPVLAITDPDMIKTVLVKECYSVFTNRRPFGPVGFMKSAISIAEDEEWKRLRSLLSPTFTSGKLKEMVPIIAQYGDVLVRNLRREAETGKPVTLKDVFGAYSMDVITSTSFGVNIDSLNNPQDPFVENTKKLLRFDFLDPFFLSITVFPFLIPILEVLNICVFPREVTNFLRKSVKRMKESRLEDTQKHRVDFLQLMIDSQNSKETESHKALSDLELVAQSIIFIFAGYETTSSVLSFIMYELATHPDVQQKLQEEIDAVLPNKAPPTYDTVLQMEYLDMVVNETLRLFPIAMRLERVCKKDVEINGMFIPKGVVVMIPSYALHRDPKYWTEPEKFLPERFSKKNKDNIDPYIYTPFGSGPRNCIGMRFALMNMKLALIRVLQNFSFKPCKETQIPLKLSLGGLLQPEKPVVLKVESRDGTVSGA
Chain of CYP2C9 (P11712 whole entry): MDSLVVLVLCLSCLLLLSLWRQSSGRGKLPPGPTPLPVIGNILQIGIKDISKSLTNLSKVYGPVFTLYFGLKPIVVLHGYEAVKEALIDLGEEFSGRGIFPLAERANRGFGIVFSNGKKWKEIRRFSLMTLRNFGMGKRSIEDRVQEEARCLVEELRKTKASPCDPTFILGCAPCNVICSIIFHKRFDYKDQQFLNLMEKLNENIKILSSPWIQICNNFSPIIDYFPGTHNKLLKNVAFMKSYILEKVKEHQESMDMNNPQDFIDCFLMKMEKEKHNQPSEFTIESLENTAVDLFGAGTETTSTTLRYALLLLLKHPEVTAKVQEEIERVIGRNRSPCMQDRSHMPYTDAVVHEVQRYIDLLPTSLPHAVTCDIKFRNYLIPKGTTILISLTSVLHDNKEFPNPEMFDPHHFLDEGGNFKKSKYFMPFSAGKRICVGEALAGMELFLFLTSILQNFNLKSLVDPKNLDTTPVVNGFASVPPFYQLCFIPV

One may read the inhibition as the share of the control response that was lost under treatment. The low end stands for a weak effect, the high end for a strong effect. As for `CC1(C)[C@@H](O)CC[C@]2(C)[C@H]3C(=O)C=C4[C@@H]5C[C@@](C)(C(=O)O)CC[C@]5(C)CC[C@@]4(C)[C@]3(C)CC[C@@H]12` [18β-glycyrrhetinic acid], in data set [1], the inhibition at 10 min, 10 µM was more than 50%.

Consider `CC1(C)C=Cc2c(ccc3c2OC[C@@H](c2ccc(O)cc2O)C3)O1` [Glabridin, glabridin], for which the inhibition at 10 min, 10 µM in data set [1] was more than 50%. Also, at CYP3A4 [2], the “mode of CYP3A4 inhibition, in words” value is “competitively inhibited”. Moreover, the “inhibition of CYP2C9, in words” value at CYP2C9 is listed as “reversibly inhibited”. Further, the “inhibition of CYP3A4, in words” value on CYP3A4 [3] was “irreversibly inhibited”. Further, at CYP2B6 [4], the “inhibition of CYP2B6, in words” value was “irreversibly inhibited”. Moreover, the “inhibition of CYP2B6 at 10 µM, in words” value against CYP2B6 [5] was “not inhibition”.

The compound `COc1c(CC=C(C)C)c(O)cc2oc(=O)c(-c3ccc(O)cc3O)cc12` [Glycycoumarin, glycycoumarin] registered an inhibition at 10 min, 10 µM in [1] of more than 50%. Also, the “inhibition of CYP2C at 10 µM, in words” value in the data set on CYP2C was “inhibited”. The “inhibition of CYP2D6 at 10 µM, in words” value at CYP2D6 is “did not observe significant inhibition”. Also, at CYP2B6 [5], the “inhibition of CYP2B6 at 10 µM, in words” value is “inhibited”.

On to `O=C(/C=C/c1ccc(O)cc1)c1ccc(O)cc1O` [Isoliquiritigenin, isoliquiritigenin], for which the “mode of CYP3A4 inhibition, in words” value at CYP3A4 [2] is “competitively inhibited”.

For the compound `O=C(/C=C/c1ccc(O[C@@H]2O[C@H](CO)[C@@H](O)[C@H](O)[C@H]2O)cc1)c1ccc(O)cc1O` [Isoliquiritin, isoliquiritin], the “inhibition of any cytochrome P450 enzyme, in words” value in the data set with cytochrome P450 enzymes is listed as “did not inhibit”.

`COc1c(CC=C(C)C)c(O)cc2c1C[C@H](c1ccc(O)c(CC=C(C)C)c1O)CO2` [Licoricidin, licoricidin] gave an inhibition at 10 min, 10 µM in data set [1] of more than 50%. For the same compound, at CYP3A4 [2], the “mode of CYP3A4 inhibition, in words” value is “competitively inhibited”. Moreover, on CYP2B6 [5], the “inhibition of CYP2B6 at 10 µM, in words” value is given as “inhibited”.

Turning to isoliquiritin apioside, in the data set with cytochrome P450 enzymes, the “inhibition of any cytochrome P450 enzyme, in words” value is “did not inhibit”.

As for liquiritin apioside, the “inhibition of any cytochrome P450 enzyme, in words” value in the data set with cytochrome P450 enzymes was “did not inhibit”.

Source of the values: paper PMC5656517 (European journal of pharmaceutical sciences : official …, 2017).
